Earlier results as cited in patent publication US12156864B2, “Analogs of cyclobenzaprine and amitryptilene” (TONIX PHARMACEUTICALS HOLDING CORP, priority 2017, dated 2024).

What was measured:
[1] = test system: veterans and males with PTSD
[2] = test system: fibromyalgia patients; conditions: cyclobenzaprine 10 to 40 mg, 12-week period
[3] = molecular target: serotonin-2A (5-HT2A) receptor (Homo sapiens, UniProt P28223)
[4] = test system: α1-adrenergic receptor
[5] = molecular target: histaminergic1 (H1) receptor (Homo sapiens, UniProt P35367)
[6] = test system: patients; conditions: oral doses sufficient to treat PTSD-associated sleep disorders
[7] = humans; metabolite formed via pathway b (N-dealkylation)
[8] = test system: PTSD combat subsample; conditions: combat subsample (N=77) of a pooled analysis

Chain of serotonin-2A (5-HT2A) receptor (P28223 whole entry, species assumed): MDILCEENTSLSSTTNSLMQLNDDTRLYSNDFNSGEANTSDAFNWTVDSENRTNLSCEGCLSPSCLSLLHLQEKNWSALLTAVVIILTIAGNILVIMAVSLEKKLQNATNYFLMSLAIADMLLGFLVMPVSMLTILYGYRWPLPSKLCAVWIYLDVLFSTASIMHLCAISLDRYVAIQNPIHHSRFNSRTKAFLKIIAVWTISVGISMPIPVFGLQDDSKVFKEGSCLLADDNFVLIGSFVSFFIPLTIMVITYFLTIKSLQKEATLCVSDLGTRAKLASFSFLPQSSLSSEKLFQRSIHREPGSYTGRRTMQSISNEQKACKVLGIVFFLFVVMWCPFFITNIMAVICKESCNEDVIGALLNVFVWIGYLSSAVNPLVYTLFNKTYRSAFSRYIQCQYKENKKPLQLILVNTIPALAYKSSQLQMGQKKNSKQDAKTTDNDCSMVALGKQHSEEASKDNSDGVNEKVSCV
Chain of histaminergic1 (H1) receptor (P35367 whole entry): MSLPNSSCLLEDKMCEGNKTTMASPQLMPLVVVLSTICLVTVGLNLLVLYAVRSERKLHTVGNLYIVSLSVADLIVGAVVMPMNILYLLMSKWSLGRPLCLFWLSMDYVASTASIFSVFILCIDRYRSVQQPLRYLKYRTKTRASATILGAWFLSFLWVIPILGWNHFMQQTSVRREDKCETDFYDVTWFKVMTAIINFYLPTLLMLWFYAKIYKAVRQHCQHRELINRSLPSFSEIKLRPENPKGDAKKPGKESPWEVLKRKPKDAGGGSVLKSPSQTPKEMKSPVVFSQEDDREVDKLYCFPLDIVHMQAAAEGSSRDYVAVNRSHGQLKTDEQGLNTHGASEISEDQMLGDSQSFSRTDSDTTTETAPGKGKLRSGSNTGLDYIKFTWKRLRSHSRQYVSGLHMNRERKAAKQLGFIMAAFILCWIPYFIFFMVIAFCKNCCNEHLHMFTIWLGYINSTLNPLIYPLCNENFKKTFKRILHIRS

CN[C@H]1CC[C@@H](c2ccc(Cl)c(Cl)c2)c2ccccc21 [Sertraline]
efficacy in PTSD [1]: failed to show efficacy

CN(C)CCC=C1c2ccccc2C=Cc2ccccc21 [cyclobenzaprine, 3-(5H-dibenzo[a,d]cyclohepten-5-ylidene)-N,N-dimethyl-1-propanamine]
quality of sleep and pain score [2]: significantly improved | total number of tender points and muscle tightness [2]: reduction | binding and antagonist activity at 5-HT2A receptor [3]: high affinity binding and antagonist activity | binding and antagonist activity at α1-adrenergic receptor [4]: high affinity binding and antagonist activity | binding and antagonist activity at H1 receptor [5]: high affinity binding and antagonist activity | next-day side effect [6]: drowsiness the next day

CNCCC=C1c2ccccc2C=Cc2ccccc21 [nor-cyclobenzaprine]
half-life [7]: ~48 h

COc1ccc(C(CN(C)C)C2(O)CCCCC2)cc1 (stereo not drawn) [venlafaxine ER]
effect on PTSD or disability [8]: no effect
